Values joined by “and” are separate entries in the source; they are usually repeats but may differ in a detail not shown here. Equal entries are not always repeated.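 Cultured in 96-well plates, cells were exposed to test compound for 48 hours across five concentrations. GI50 marks 50% less growth. TGI denotes the concentration required for complete inhibition of growth.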
Columns and labels:
Assay in all cases: NCI tumour cell line growth inhibition, 48 h
HOP-18 NSCLC = system: HOP-18 NSCLC
LXFL 529 NSCLC = system: LXFL 529 NSCLC
DLD-1 colon = system: DLD-1 colon
SNB-78 CNS = system: SNB-78 CNS
XF 498 CNS = system: XF 498 CNS
KM20L2 colon = system: KM20L2 colon
RXF-631 renal = system: RXF-631 renal
M19-MEL melanoma = system: M19-MEL melanoma
MDA-N = system: MDA-N
SN12K1 renal = system: SN12K1 renal
P388/ADR leukemia = system: P388/ADR leukemia
P388 leukemia = system: P388 leukemia

| Structure (SMILES) | TGI (HOP-18 NSCLC) | TGI (LXFL 529 NSCLC) [µM] | TGI (DLD-1 colon) | TGI (SNB-78 CNS) | TGI (XF 498 CNS) | TGI (KM20L2 colon) | TGI (RXF-631 renal) [µM] | TGI (M19-MEL melanoma) | TGI (MDA-N) | further results |
| --- | --- | --- | --- | --- | --- | --- | --- | --- | --- | --- |
| CNS(=O)(=O)NNS(=O)(=O)c1ccc(Br)cc1 | > 100 µM | > 100 | > 100 µM | > 100 µM | > 100 µM | > 100 µM | > 100 | > 100 µM | – | – |
| O=S(=O)(c1ccccc1)C1CN2OC1(S(=O)(=O)c1ccccc1)CC2c1ccc(Br)cc1 (stereo unspecified) | – | – | > 100 µM | – | 57.5 µM | > 100 µM | > 100 | > 100 µM | – | – |
| CCCN1CN(C(C(=O)N[C@@H]2C(=O)N3C2SC(C)(C)C3C(=O)O)c2ccc(O)cc2)CSC1=S (stereo partly specified) | > 100 µM | > 100 | > 100 µM | – | > 100 µM | > 100 µM | – | > 100 µM | – | – |
| CC[C@H]1CN2CCc3cc(OC)c(OC)cc3[C@@H]2C[C@@H]1C[C@H]1NCCc2c1[nH]c1ccc(O)cc21 | 0.711 µM and 0.0824 µM and 0.449 µM | – | 0.246 µM and 0.57 µM and 1.58 µM | 0.0828 µM and 0.0713 µM and 0.11 µM | 0.0586 µM and 0.268 µM | 0.0858 µM and 0.47 µM and 0.241 µM | – | 0.0461 µM and 0.076 µM and < 0.0112 µM | 0.0568 µM and 0.182 µM | GI50 (HOP-18 NSCLC): 0.188 µM and 0.0283 µM; GI50 (DLD-1 colon): 0.144 µM; GI50 (SNB-78 CNS): 0.0273 µM and 0.0257 µM; GI50 (XF 498 CNS): 0.0415 µM; GI50 (KM20L2 colon): 0.0317 µM and 0.0549 µM; GI50 (MDA-N): 0.0234 µM; TGI (SN12K1 renal): 2.64 µM; TGI (P388/ADR leukemia): > 100 µM; GI50 (M19-MEL melanoma): 0.0164 µM and 0.0241 µM |
| Cc1cc(C)nc(NS(=O)(=O)c2ccc(NC(=O)c3cccc4c(Nc5ccc(S(N)(=O)=O)cc5)c5ccccc5nc34)cc2)n1 | > 100 µM | > 100 | > 100 µM | 52.3 µM | 88.2 µM | > 100 µM | > 100 | 46.5 µM | – | – |
| COc1c[c]([Hg][O]C(C)=O)c(OC)c(NC(=O)CC(C)=O)[c]1[Hg][O]C(C)=O | 4.62 µM | 2.85 | 5.18 µM | – | 3.2 µM | 30.9 µM | – | 22 µM | – | GI50 (HOP-18 NSCLC): 1.96 µM; GI50 (LXFL 529 NSCLC): 1.42 µM; GI50 (DLD-1 colon): 2.25 µM; GI50 (XF 498 CNS): 1.65 µM; GI50 (KM20L2 colon): 14.2 µM; GI50 (M19-MEL melanoma): 8.85 µM |
| Cc1ccc(S(=O)(=O)c2ccc(N)cc2)cc1 | – | > 100 | > 100 µM | > 100 µM | > 100 µM | > 100 µM | > 100 | > 100 µM | – | – |
| CC(C)C(=O)NS(=O)(=O)c1ccccc1 | > 100 µM | > 100 | > 100 µM | > 100 µM | > 100 µM | > 100 µM | > 100 | > 100 µM | – | – |
| CC(C)C(=O)Nc1nc2c(ncn2C2OC(CO)C(O)C2O)c(=O)[nH]1 (stereo unspecified) | > 100 µM | > 100 | > 100 µM | > 100 µM | > 100 µM | > 100 µM | > 100 | > 100 µM | – | – |
| CCn1sc2ccccc2c1=O | – | – | – | – | – | – | – | – | 8.99 µM | – |
| O=Cc1ccc2c(c1-c1c(C=O)ccc3c1OCO3)OCO2 | > 100 µM | > 100 | > 100 µM | > 100 µM | – | > 100 µM | – | > 100 µM | – | – |
| CC(C)N(C(=O)C12C3C4C1(I)C1C2C3(I)C41C(=O)N(C(C)C)C(C)C)C(C)C (stereo unspecified) | > 100 µM | > 100 | > 100 µM | – | > 100 µM | > 100 µM | > 100 | > 70.9 µM | – | – |
| Cc1[nH]c(/C=C2\C(=O)Nc3ccccc32)c(C)c1CCC(=O)O | – | – | – | – | – | – | – | – | > 100 µM | – |
| COC1(OC)CC2C(=O)N(Cc3ccccc3)C1C=C2S(=O)(=O)c1ccccc1 (stereo unspecified) | 31.9 µM | 34.2 | 27.6 µM | 74.4 µM | 31.7 µM | 33.1 µM | – | 30.4 µM | – | – |
| Cc1cc(NS(=O)(=O)c2ccc(Nc3c4ccccc4nc4c(C(=O)N5CCN(CCO)CC5)ccc(Cl)c34)cc2)no1 | – | – | > 100 µM | – | > 100 µM | > 100 µM | > 100 | > 100 µM | – | – |
| COC(=O)/C=C/c1c(CC=C(C)C)ncn1C | > 100 µM | > 100 | > 100 µM | > 100 µM | > 100 µM | > 65.8 µM | > 100 | > 100 µM | – | – |
| COC(=O)[C@H]1C=C[C@@H](C)n2c(=O)c3cc4ccccc4cc3c(=O)n21 | – | > 100 | > 100 µM | > 100 µM | > 100 µM | > 100 µM | > 100 | > 100 µM | – | – |
| O=C(/C=C/c1ccccc1Cl)NC1C=Nc2ccc([N+](=O)[O-])cc2NC1 (stereo unspecified) | > 100 µM | > 100 | > 100 µM | > 100 µM | > 100 µM | > 100 µM | – | > 100 µM | – | – |
| O=P1(c2ccccc2)CCCCC1 | > 100 µM | > 100 | > 100 µM | > 100 µM | – | > 100 µM | – | – | – | – |
| O=C(O)CC(NC(=O)CP(=O)(O)O)C(=O)O (stereo unspecified) | > 9690 µM | – | 9920 µM | > 10000 µM | > 3160 µM | > 10000 µM | – | > 10000 µM | > 10000 µM | TGI (P388 leukemia): > 5860 µM; GI50 (MDA-N): 54.1 µM; TGI (SN12K1 renal): > 10000 µM; TGI (P388/ADR leukemia): > 8350 µM |

| Structure (SMILES) | TGI (HOP-18 NSCLC) | TGI (LXFL 529 NSCLC) [µM] | TGI (DLD-1 colon) | TGI (SNB-78 CNS) | TGI (XF 498 CNS) | TGI (KM20L2 colon) | TGI (RXF-631 renal) [µM] | TGI (M19-MEL melanoma) | TGI (MDA-N) | further results |
| --- | --- | --- | --- | --- | --- | --- | --- | --- | --- | --- |
| COc1cc(C=O)c(-c2cc(OC)c(OC)cc2C=O)cc1OC | > 100 µM | > 100 | > 100 µM | > 100 µM | – | > 100 µM | – | > 100 µM | – | – |
| N#CC(C(=O)C(=O)Nc1ccc(Cl)cc1)c1ccccc1 (stereo unspecified) | > 100 µM | > 100 | > 100 µM | > 100 µM | – | > 100 µM | > 100 | > 100 µM | – | – |
| COc1ccc(-c2coc3c4c(ccc3c2=O)OCO4)cc1OC | – | – | – | – | – | – | – | – | > 100 µM | – |
| Cc1nc2sc3c(c2c(=O)[nH]1)CCCC3 | – | – | – | – | – | – | – | – | > 100 µM | – |
| CCOc1ccncc1[N+](=O)[O-] | – | – | – | – | – | – | – | – | > 100 µM | – |
| CC(=O)O[C@H]1CCC2[C@@H]3CCC4Nc5[nH]ncc5C[C@]4(C)C3CC[C@@]21C (stereo partly specified) | > 100 µM | > 100 | – | – | 87 µM | > 100 µM | > 100 | > 100 µM | – | – |
| CCCO/S(=N\S(=O)(=O)c1ccccc1)c1ccccc1[N+](=O)[O-] (stereo unspecified) | – | > 100 | > 100 µM | > 100 µM | > 100 µM | > 100 µM | > 100 | > 100 µM | – | – |
| CC(=O)[O][Ga]([Br])[O]C(C)=O | > 100 µM | > 100 | > 100 µM | > 100 µM | > 100 µM | > 100 µM | – | > 100 µM | – | GI50 (HOP-18 NSCLC): > 100 µM; GI50 (LXFL 529 NSCLC): > 100 µM; GI50 (DLD-1 colon): > 100 µM; GI50 (SNB-78 CNS): > 100 µM; GI50 (XF 498 CNS): > 100 µM; GI50 (KM20L2 colon): > 100 µM; GI50 (M19-MEL melanoma): > 100 µM |
| O=CN1CCN(CC(O)CN2CCCCC2)CC1 (stereo unspecified) | – | – | – | – | – | – | – | – | > 100 µM | – |
| c1ccc2c(c1)c1c(c3ccccc32)CN2CCCC2C1 (stereo unspecified) | – | – | – | – | – | – | – | – | 14.2 µM | – |
| Cc1nc([N+](=O)[O-])cn1CC(=N)N | – | > 100 | > 100 µM | – | – | > 100 µM | > 100 | > 100 µM | – | – |
| CC(C)(S)C(N)C(=O)O (stereo unspecified) | – | – | – | – | – | – | – | – | > 100 µM | – |
| OCc1ccn2c1[C@@H](O)CC2 | – | – | – | – | – | – | – | – | > 100 µM | – |
| CN[C@@H](C)[C@@H](NC)c1ccccc1 | > 100 µM | > 100 | > 100 µM | > 100 µM | – | – | > 100 | > 100 µM | – | – |
| CC(C)N(CCn1c2c3ccccc3ccc2c2oc(=O)c3ccccc3c21)C(C)C | > 86.6 µM | > 100 | > 100 µM | > 100 µM | > 100 µM | > 100 µM | > 100 | > 100 µM | – | – |
| CC1COC(C)(C)P(=O)(c2ccccc2)C1 (stereo unspecified) | > 100 µM | > 100 | > 100 µM | > 100 µM | > 100 µM | > 100 µM | – | > 100 µM | – | – |
| O=C(O)c1ccc(OCc2ccccc2)c(Cl)c1 | – | – | – | – | – | – | – | – | > 100 µM | – |
| O=[N+]([O-])c1ccc(N2N=C(c3ccc(NCc4nc5ccccc5[nH]4)cc3)CC2c2ccco2)cc1 (stereo unspecified) | > 100 µM | 38.5 | > 100 µM | – | – | – | – | > 100 µM | – | – |
| CCOP(=O)(OCC)OC1C=CC2CCC1C2 (stereo unspecified) | > 100 µM | > 100 | > 100 µM | > 100 µM | > 100 µM | > 100 µM | > 100 | – | – | – |
| O=C1OCC2C1C1c3ccccc3C(O)c3ccccc3C21 (stereo unspecified) | > 100 µM | > 100 | > 100 µM | > 100 µM | > 100 µM | > 100 µM | > 100 | > 100 µM | – | – |

Source: PubChem BioAssay (NCI)
